This experiment deals with PTHR1GFP. In words: cAMP induction in HEK293 cells stably expressing PTHR1GFP. In kind it is cell-based, human. The procedure: The GFP-PTHR1 fusion was stably expressed in cells that respond to receptor engagement by activation of a cAMP-sensitive version of luciferase. Exposure of these transfectants to PTH(1-11) yielded the expected dose-response curve with half maximal stimulation at ˜200 nM.
Measurement of cAMP response. These assays were performed as previously described^27. Briefly, HEK-293-derived cell lines that stably express the Glosensor cAMP reporter (Promega Corp.)^30 and PTHR1, a PTHR1 variant, or PTHR2 were seeded into white sided 96 well plates (50,000 cells/well) and grown to confluency. Confluent monolayers of cells were pre-incubated with CO2 independent medium containing D-luciferin (0.5 mM) at 37° C. until a stable baseline level of luminescence was established (20 min). Varying concentrations of ligands were then added, and the time course of luminescence response was recorded using BioTek plate reader. The maximal luminescence response (observed 12-16 min after ligand addition) was used to construct dose-response data sets (Table 4, FIGS. 22A to 22E).
Data calculations. Data were processed using Microsoft Excel and GraphPad Prism 6. Data from cAMP dose-response assays were analyzed using a sigmoidal dose-response model with variable slope. Data sets were statistically compared by using Student's t test (two-tailed) assuming unequal variances for the two sets.
While there is no structural information for any VHH bound to PTHR1, a mode of interaction was envisioned between the receptor and VHH-PTH conjugates like that depicted in FIG. 12—Panel c. The portion of PTHR1 encoded by exon 2 is not resolved in structural studies (FIG. 12—Panel d)^13, 14, 17, is not important for ligand binding^18, and in past work has been targeted as a site for receptor modification^18, 19. A construct was generated that encodes a PTHR1 variant in which a 14-residue fragment from exon 2 was replaced with a 14-mer epitope tag from the intracellular protein UBC6e (PTHR16E, FIG. 12—Panel d)^20. A receptor construct in which a pH-sensitive green fluorescent protein variant (GFP) was inserted into the portion of the receptor encoded by exon 2 (PTHR1GFP in FIGS. 17A to 17C)^19. Another version of PTHR1 in which yellow fluorescent protein (YFP) replaces the entire extracellular domain (PTHR1YFPΔECD, FIG. 12—Panel e)^21, was also used.

The record followed here is patent US11878063B2, “Engineered ligands and uses thereof” (Children's Medical Center Corporation, priority 2019, dated 2024).

A word on the EC50: it is the concentration at which the effect is half-maximal.

Regarding `CC[C@H](C)[C@H](NC(=O)[C@H](CCC(=O)O)NC(=O)[C@H](CO)NC(=O)[C@@H](NC(=O)[C@@H](N)CO)C(C)C)C(=O)N[C@@H](CCC(N)=O)C(=O)N[C@@H](CC(C)C)C(=O)N[C@@H](CCSC)C(=O)N[C@@H](Cc1cnc[nH]1)C(=O)N[C@@H](CC(N)=O)C(=O)N[C@@H](CC(C)C)C(=O)NCC(=O)N[C@@H](CCCCN)C(=O)N[C@@H](Cc1cnc[nH]1)C(=O)N[C@@H](CC(C)C)C(=O)N[C@@H](CC(N)=O)C(=O)N[C@@H](CO)C(=O)N[C@@H](CCSC)C(=O)N[C@@H](CCC(=O)O)C(=O)N[C@@H](CCCN=C(N)N)C(=O)N[C@H](C(=O)N[C@@H](CCC(=O)O)C(=O)N[C@@H](Cc1c[nH]c2ccccc12)C(=O)N[C@@H](CC(C)C)C(=O)N[C@@H](CCCN=C(N)N)C(=O)N[C@@H](CCCCN)C(=O)N[C@@H](CCCCN)C(=O)N[C@@H](CC(C)C)C(=O)N[C@@H](CCC(N)=O)C(=O)N[C@@H](CC(=O)O)C(=O)N[C@H](C(=O)N[C@@H](Cc1cnc[nH]1)C(=O)N[C@@H](CC(N)=O)C(=O)N[C@@H](Cc1ccccc1)C(=O)O)C(C)C)C(C)C` [PTH(1-34)], under “maximal cAMP response, normalized”, the “Max (normalized ± SD), hPTHR1GFP” value came out at 1.00 ± 0.00. Besides, the EC50 (mean ± SD, Inactive = response <5% of maximal, read-out: EC50, cAMP induction, hPTHR1GFP) came to 400 ± 800 pM.
